# *1 amine or outer side, *2 acyl side, *3 side chain or, on linkers, in order; H or OH if unused. Where a SMILES comes first, the peptide text is derived from it. Bridges are numbered along the chain shown (N, C = ends). [ ]: non-standard residue; d: D form. The star is where a group is joined. ξ: configuration not given here. X15 = NCCCC[C@H](NC(=O)CNCCNCCN*)C(=O)NCCCCCCCCCCC(=O)O; Phe(4-COOH) = N[C@@H](Cc1ccc(C(=O)O)cc1)C(=O)O; Bip = N[C@@H](Cc1ccc(-c2ccccc2)cc1)C(=O)O; Phe(3-Me) = Cc1cccc(C[C@H](N)C(=O)O)c1; γGlu = O=C(O)[C@H](CCC(=O)[*:2])N[*:1]; Val(3-OH) = CC(C)(O)[C@H](N)C(=O)O; 4Pal = N[C@@H](Cc1ccncc1)C(=O)O; Cha = N[C@@H](CC1CCCCC1)C(=O)O; Cit = NC(=O)NCCC[C@H](N)C(=O)O; Ile(3ξ) = CCC(C)[C@H](N)C(=O)O; Thr(3ξ) = CC(O)[C@H](N)C(=O)O; Carboxymethyl = O=C(O)C*; NMeA = CN[C@@H](C)C(=O)O; Orn = NCCC[C@H](N)C(=O)O; dDap = NC[C@@H](N)C(=O)O; Aun = NCCCCCCCCCCC(=O)O; Dab = NCC[C@H](N)C(=O)O; Dap = NC[C@H](N)C(=O)O; AEEA = NCCOCCOCC(=O)O
# Biological target: T1, PD-1/PD-L1 interaction (PE-labeled human PD-L1-Ig binding to Jurkat cell line over-expressing human PD-1) (Homo sapiens, UniProt Q15116)
# T1 construct: expressed in transfected cells; host or cells: Jurkat
# Test: Jurkat-PD-1 Cell Binding High-Content Screening Assay (CBA)
# Settings: Jurkat-hPD-1 cells, PE-labeled PD-L1-Ig 20 nM final; read-out: Jurkat HPD1 PDL1 IC50
# Summary of the method: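 Jurkat cells overexpressing human PD-1 (8×10^3/well, DMEM + 10% FCS) preincubated with compound 2 h at 37 °C, then PE-labelled human PD-L1-Ig (20 nM final) for 1 h. Cells fixed in paraformaldehyde with Hoechst 33342; bound PD-L1 quantified by high-content imaging.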
# T1 sequence (Q15116 25-288): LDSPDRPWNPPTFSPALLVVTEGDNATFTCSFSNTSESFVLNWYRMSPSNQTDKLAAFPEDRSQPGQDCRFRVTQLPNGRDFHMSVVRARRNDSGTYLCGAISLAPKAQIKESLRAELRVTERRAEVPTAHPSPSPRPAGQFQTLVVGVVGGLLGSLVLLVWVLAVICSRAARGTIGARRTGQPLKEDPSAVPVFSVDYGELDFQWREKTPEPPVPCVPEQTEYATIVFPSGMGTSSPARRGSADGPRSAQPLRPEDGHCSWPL
row,IC50 [µM],Structure (SMILES)
1,0.0269,CCC(C)[C@@H]1NC(=O)[C@H](Cc2ccc(-c3ccccc3)cc2)NC(=O)[C@H](CC(C)C)NC(=O)[C@H](Cc2c[nH]c3ccccc23)NC(=O)[C@H](CC(=O)O)NC(=O)[C@H](Cc2ccc(OCC(=O)O)cc2)NC(=O)[C@H](Cc2ccncc2)NC(=O)CSC[C@@H](C(=O)NCCOCCOCC(=O)N[C@@H](CCC(=O)NCCCCCCCCCCC(=O)O)C(=O)O)NC(=O)[C@H](CO)NC(=O)[C@H](C(C)C)NC(=O)[C@H](CC2CCCCC2)NC(=O)[C@H](CCN)NC(=O)[C@@H](CC(C)C)NC(=O)[C@H](C)N(C)C1=O (stereo partly drawn) [Example 2045] ({CH2CO}-[4Pal]Y(Carboxymethyl)DWL[Bip][Ile(3ξ)][NMeA][dL][Dab][Cha]VSC[AEEA][γGlu][Aun]-OH; thioether N-14)
2,0.02,CCC(C)[C@@H]1NC(=O)[C@H](Cc2ccc(-c3ccccc3)cc2)NC(=O)[C@H](CC(C)C)NC(=O)[C@H](Cc2c[nH]c3ccccc23)NC(=O)[C@H](CC(=O)O)NC(=O)[C@H](Cc2ccc(C(=O)O)cc2)NC(=O)[C@H](Cc2ccc(OCC(=O)O)cc2)NC(=O)CSC[C@@H](C(=O)NCCOCCOCC(=O)N[C@H](CN)C(=O)NCCOCCOCC(=O)NCCCCCCCCCCC(=O)O)NC(=O)[C@H](CO)NC(=O)[C@H](C(C)C)NC(=O)[C@H](CC2CCCCC2)NC(=O)[C@H](CCN)NC(=O)[C@@H](CC(C)C)NC(=O)[C@H](C)N(C)C1=O (stereo partly drawn) [Example 2056] ({CH2CO}-Y(Carboxymethyl)[Phe(4-COOH)]DWL[Bip][Ile(3ξ)][NMeA][dL][Dab][Cha]VSC[AEEA][dDap][AEEA][Aun]-OH; thioether N-14)
3,0.02,CC(C)C[C@@H]1NC(=O)[C@H](Cc2c[nH]c3ccccc23)NC(=O)[C@H](CC(=O)O)NC(=O)[C@H](Cc2ccc(OCC(=O)O)cc2)NC(=O)[C@H](Cc2ccc(OCC(=O)O)cc2)NC(=O)CSC[C@@H](C(=O)NCCOCCOCC(=O)N[C@@H](CCN)C(=O)NCCCCCCCCCCC(=O)O)NC(=O)[C@H](CCCN)NC(=O)[C@H](C(C)C)NC(=O)[C@H](CC2CCCCC2)NC(=O)[C@H](CCN)NC(=O)[C@@H](CC(C)C)NC(=O)[C@H](C)N(C)C(=O)[C@H](C(C)C)NC(=O)[C@H](Cc2ccc(-c3ccccc3)cc2)NC1=O [Example 2158] ({CH2CO}-Y(Carboxymethyl)Y(Carboxymethyl)DWL[Bip]V[NMeA][dL][Dab][Cha]V[Orn]C[AEEA][Dab][Aun]-OH; thioether N-14)
4,0.0324,Cc1cccc(C[C@@H]2NC(=O)[C@H](CC(=O)O)NC(=O)[C@H](Cc3ccc(OCC(=O)O)cc3)NC(=O)[C@H](CN)NC(=O)CSC[C@@H](C(=O)NCCNCCNCC(=O)N[C@@H](CCCCN)C(=O)NCCCCCCCCCCC(=O)O)NC(=O)[C@H](CO)NC(=O)[C@H](C(C)C)NC(=O)[C@H](CC(C)C)NC(=O)[C@H](CC(N)=O)NC(=O)[C@@H](CC(C)C)NC(=O)[C@H](C)N(C)C(=O)[C@H](C(C)C)NC(=O)[C@H](Cc3ccc(-c4ccccc4)cc3)NC(=O)[C@H](CC(C)C)NC2=O)c1 [Example 1065] ({CH2CO}-[Dap]Y(Carboxymethyl)D[Phe(3-Me)]L[Bip]V[NMeA][dL]NLVSC-X15; thioether N-14)
5,0.0181,CC(C)C[C@@H]1NC(=O)[C@H](Cc2c[nH]c3ccccc23)NC(=O)[C@H](CC(=O)O)NC(=O)[C@H](Cc2ccc(C(=O)O)cc2)NC(=O)[C@H](Cc2ccc(OCC(=O)O)cc2)NC(=O)CSC[C@@H](C(=O)N[C@@H](CC(N)=O)C(=O)NCCOCCOCC(=O)NCCCCCCCCCCC(=O)O)NC(=O)[C@H](CO)NC(=O)[C@H](C(C)(C)O)NC(=O)[C@H](CC2CCCCC2)NC(=O)[C@H](CCN)NC(=O)[C@@H](CC(C)C)NC(=O)[C@H](C)N(C)C(=O)[C@H](C(C)C)NC(=O)[C@H](Cc2ccc(-c3ccccc3)cc2)NC1=O [Example 1413] ({CH2CO}-Y(Carboxymethyl)[Phe(4-COOH)]DWL[Bip]V[NMeA][dL][Dab][Cha][Val(3-OH)]SCN[AEEA][Aun]-OH; thioether N-14)

# Same assay, conditions: PE-labeled PD-L1-Ig 20 nM final, Jurkat-hPD-1 cells; read-out: Jurkat HPD1 PDL1 IC50
row,IC50 [µM],Structure (SMILES)
1,0.0114,CC(=O)NCCCC[C@@H]1NC(=O)[C@H](C(C)(C)O)NC(=O)[C@H](CC2CCCCC2)NC(=O)[C@H](CCN)NC(=O)[C@@H](CC(C)C)NC(=O)[C@H](C)N(C)C(=O)[C@H](Cc2ccc(C(=O)O)cc2)NC(=O)[C@H](Cc2ccc(-c3ccccc3)cc2)NC(=O)[C@H](Cc2ccc(C(=O)O)cc2)NC(=O)[C@H](Cc2cccc(C)c2)NC(=O)[C@H](CC(=O)O)NC(=O)[C@H](Cc2ccc(OCC(=O)O)cc2)NC(=O)[C@H](C(C)O)NC(=O)CSC[C@@H](C(=O)N[C@@H](CCN)C(=O)NCCOCCOCC(=O)N[C@@H](CCC(=O)NCCCCCCCCCCCCC(=O)O)C(=O)O)NC1=O (mixture of isomers) [Example 2659]
2,0.0071,CCC(C)[C@@H]1NC(=O)[C@H](Cc2ccc(-c3ccccc3)cc2)NC(=O)[C@H](C(C)C)NC(=O)[C@H](Cc2c[nH]c3ccccc23)NC(=O)[C@H](CC(=O)O)NC(=O)[C@H](Cc2ccc(C(=O)O)cc2)NC(=O)[C@H](Cc2ccc(OCC(=O)O)cc2)NC(=O)CSC[C@@H](C(=O)N[C@@H](CCN)C(=O)NCCOCCOCC(=O)NCCCCCCCCCCC(=O)O)NC(=O)[C@H](CCCNC(N)=O)NC(=O)[C@H](C(C)(C)O)NC(=O)[C@H](CC2CCCCC2)NC(=O)[C@H](Cc2cnc[nH]2)NC(=O)[C@@H](CC(C)C)NC(=O)[C@H](C)N(C)C1=O (stereo partly drawn) [Example 2523] ({CH2CO}-Y(Carboxymethyl)[Phe(4-COOH)]DWV[Bip][Ile(3ξ)][NMeA][dL]H[Cha][Val(3-OH)][Cit]C[Dab][AEEA][Aun]-OH; thioether N-14)
3,0.078,Cc1cccc(C[C@@H]2NC(=O)[C@H](CC(=O)O)NC(=O)[C@H](Cc3ccc(C(=O)O)cc3)NC(=O)[C@H](C(C)O)NC(=O)CSC[C@@H](C(=O)N[C@@H](CCCN)C(=O)NCCOCCOCC(=O)NCCCCCCCCCCC(=O)O)NC(=O)[C@H](CCC(=O)O)NC(=O)[C@H](C(C)(C)O)NC(=O)[C@H](CC3CCCCC3)NC(=O)[C@H](CCN)NC(=O)[C@@H](CC(C)C)NC(=O)[C@H](C)N(C)C(=O)[C@H](Cc3ccc(C(=O)O)cc3)NC(=O)[C@H](Cc3ccc(-c4ccccc4)cc3)NC(=O)[C@H](Cc3ccc(C(=O)O)cc3)NC2=O)c1 (stereo partly drawn) [Example 2499] ({CH2CO}-[Thr(3ξ)][Phe(4-COOH)]D[Phe(3-Me)][Phe(4-COOH)][Bip][Phe(4-COOH)][NMeA][dL][Dab][Cha][Val(3-OH)]EC[Orn][AEEA][Aun]-OH; thioether N-14)
4,0.0048,Cc1cccc(C[C@@H]2NC(=O)[C@H](CC(=O)O)NC(=O)[C@H](Cc3ccc(OCC(=O)O)cc3)NC(=O)[C@H](C(C)O)NC(=O)CSC[C@@H](C(=O)N[C@@H](CCN)C(=O)NCCOCCOCC(=O)NCCCCCCCCCCC(=O)O)NC(=O)[C@H](CCC(=O)O)NC(=O)[C@H](C(C)C)NC(=O)[C@H](CC3CCCCC3)NC(=O)[C@H](CCN)NC(=O)[C@@H](CC(C)C)NC(=O)[C@H](C)N(C)C(=O)[C@H](Cc3ccc(C(=O)O)cc3)NC(=O)[C@H](Cc3ccc(-c4ccccc4)cc3)NC(=O)[C@H](Cc3ccc(C(=O)O)cc3)NC2=O)c1 (stereo partly drawn) [Example 2553] ({CH2CO}-[Thr(3ξ)]Y(Carboxymethyl)D[Phe(3-Me)][Phe(4-COOH)][Bip][Phe(4-COOH)][NMeA][dL][Dab][Cha]VEC[Dab][AEEA][Aun]-OH; thioether N-14)
